Target: T1, human GCS (glucosylceramide synthase) (Homo sapiens, UniProt Q16739)
T1 construct: made in house; host or cells: Expi293F cells (transient expression; microsome fraction)
T1 sequence (Q16739 1-394): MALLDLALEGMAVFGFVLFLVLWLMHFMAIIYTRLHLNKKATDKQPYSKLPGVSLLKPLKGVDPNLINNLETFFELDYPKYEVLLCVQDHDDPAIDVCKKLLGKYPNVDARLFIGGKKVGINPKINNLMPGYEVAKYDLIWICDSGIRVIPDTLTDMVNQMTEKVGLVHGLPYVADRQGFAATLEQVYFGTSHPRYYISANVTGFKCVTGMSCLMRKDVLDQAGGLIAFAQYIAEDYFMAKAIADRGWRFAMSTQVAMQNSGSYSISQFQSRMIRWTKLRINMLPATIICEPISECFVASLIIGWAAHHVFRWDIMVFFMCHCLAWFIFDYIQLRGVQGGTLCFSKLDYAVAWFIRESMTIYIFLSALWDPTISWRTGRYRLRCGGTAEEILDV
Assay: Glucosylceramide Synthase (GCS) Assay
Type: biochemical
Settings: test compound 10 μM; microsome fraction of Expi293F cells expressing human GCS; 1.7 μM UDP-glucose, 3 μM C8 ceramide; room temperature 60 min; C8 glucosylceramide by Rapidfire MS/MS; read-out: GCS enzyme inhibitory rate at 10 μM (%)
Procedure, shortened: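 Enzyme source was a microsome fraction from Expi293F cells transiently expressing human GCS. Reaction ran 60 min at room temperature in 20 mM Tris pH 7.5 with 1.7 μM UDP-glucose (Km) and 3 μM liposomal C8 ceramide, compound at 10 μM final. C8 glucosylceramide quantified by RapidFire MS/MS; inhibition scaled between enzyme-free and DMSO controls.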

Row | SMILES | inhibition at 10 µM [%]
1 | O=C(Nc1ccc(OCC(F)(F)F)nc1)c1ccnn(-c2ccc(F)cc2OCC(F)(F)F)c1=O [Example 29, 2-[4-fluoro-2-(2,2,2-trifluoroethoxy)phenyl]-3-oxo-N-[6-(2,2,2-trifluoroethoxy)pyridin-3-yl]-2,3-dihydropyridazine-4-carboxamide] | 97
2 | O=C(Nc1cnn(CC2CC2)c1)c1cccn(-c2ccc(F)cc2OCC(F)(F)F)c1=O [Example 40, N-[1-(cyclopropylmethyl)-1H-pyrazol-4-yl]-1-[4-fluoro-2-(2,2,2-trifluoroethoxy)phenyl]-2-oxo-1,2-dihydropyridine-3-carboxamide] | 69
3 | COc1ccc(NC(=O)c2cccn(-c3ccccc3OCC(F)(F)F)c2=O)cn1 [Example 13, N-(6-methoxypyridin-3-yl)-2-oxo-1-[2-(2,2,2-trifluoroethoxy)phenyl]-1,2-dihydropyridine-3-carboxamide] | 96
4 | O=C(Nc1ccn(CC2CC2(F)F)n1)c1cccn(-c2ccc(F)cc2OCC(F)(F)F)c1=O (racemic) [Example 55, rac-N-{1-[(2,2-difluorocyclopropyl)methyl]-1H-pyrazol-3-yl}-1-[4-fluoro-2-(2,2,2-trifluoroethoxy)phenyl]-2-oxo-1,2-dihydropyridine-3-carboxamide] | 88
5 | O=C(Nc1ccc(C(O)(C(F)F)C(F)F)nc1)c1cn(C2CC2)nc(-c2ccccc2OCC(F)F)c1=O [Example 189, 2-cyclopropyl-6-[2-(2,2-difluoroethoxy)phenyl]-5-oxo-N-[6-(1,1,3,3-tetrafluoro-2-hydroxypropan-2-yl)pyridin-3-yl]-2,5-dihydropyridazine-4-carboxamide] | 100
6 | O=C(Nc1ccc(C(O)(C(F)F)C(F)F)nc1)c1cn(CC2COC2)nc(-c2ccccc2OCC(F)F)c1=O [Example 188, 6-[2-(2,2-difluoroethoxy)phenyl]-2-[(oxetan-3-yl)methyl]-5-oxo-N-[6-(1,1,3,3-tetrafluoro-2-hydroxypropan-2-yl)pyridin-3-yl]-2,5-dihydropyridazine-4-carboxamide] | 99
7 | CC(C)(O)c1ccc(NC(=O)c2ccnn(-c3ccccc3OCC(F)F)c2=O)cn1 [Example 134, 2-[2-(2,2-difluoroethoxy)phenyl]-N-[6-(2-hydroxypropan-2-yl)pyridin-3-yl]-3-oxo-2,3-dihydropyridazine-4-carboxamide] | 94
8 | O=C(Nc1ccc(C(O)(C(F)(F)F)C(F)(F)F)cc1)c1cccn(-c2ccccc2OCC(F)(F)F)c1=O [Example 89, N-[4-(1,1,1,3,3,3-hexafluoro-2-hydroxypropan-2-yl)phenyl]-2-oxo-1-[2-(2,2,2-trifluoroethoxy)phenyl]-1,2-dihydropyridine-3-carboxamide] | 100
9 | O=C(Nc1ccc(OCC(F)(F)F)nc1)c1cccn(-c2ccnnc2OCC(F)(F)F)c1=O [Example 79, 2-oxo-1-[3-(2,2,2-trifluoroethoxy)pyridazin-4-yl]-N-[6-(2,2,2-trifluoroethoxy)pyridin-3-yl]-1,2-dihydropyridine-3-carboxamide] | 87
10 | O=C(Nc1cnn(CC(F)(F)F)c1)c1cccn(-c2ccc(F)cc2OCC(F)(F)F)c1=O [Example 48, 1-[4-fluoro-2-(2,2,2-trifluoroethoxy)phenyl]-2-oxo-N-[1-(2,2,2-trifluoroethyl)-1H-pyrazol-4-yl]-1,2-dihydropyridine-3-carboxamide] | 70
11 | Cc1cc(C(=O)Nc2ccc(C(O)(C(F)F)C(F)F)cc2F)c(=O)n(-c2ccccc2OCC(F)F)n1 [Example 156, 2-[2-(2,2-difluoroethoxy)phenyl)-N-[2-fluoro-4-(1,1,3,3-tetrafluoro-2-hydroxypropan-2-yl)phenyl]-6-methyl-3-oxo-2,3-dihydropyridazine-4-carboxamide] | 100
12 | CC(C)(O)c1ccc(NC(=O)c2ccnn(-c3ccc(F)cc3OCC(F)(F)F)c2=O)cn1 [Example 112, 2-[4-fluoro-2-(2,2,2-trifluoroethoxy)phenyl]-N-[6-(2-hydroxypropan-2-yl)pyridin-3-yl]-3-oxo-2,3-dihydropyridazine-4-carboxamide] | 94
13 | O=C(Nc1ccc(Cl)cc1)c1cccn(-c2ccccc2OCC(F)(F)F)c1=O [Example 14, N-(4-chlorophenyl)-2-oxo-1-[2-(2,2,2-trifluoroethoxy)phenyl]-1,2-dihydropyridine-3-carboxamide] | 99
14 | Cc1cc(C(=O)Nc2ccc(C(C)O)cc2)c(=O)n(-c2ccccc2OCC(F)F)n1 (racemic) [Example 139, rac-2-[2-(2,2-difluoroethoxy)phenyl]-N-[4-(1-hydroxyethyl)phenyl]-6-methyl-3-oxo-2,3-dihydropyridazine-4-carboxamide] | 99

Next, values leading:

Row | inhibition at 10 µM [%] | SMILES
15 | 98 | CCOC(=O)c1cc(C(=O)Nc2ccc(OC(F)F)cc2)c(=O)n(-c2ccccc2OCC(F)(F)F)n1 [Example 198, ethyl 5-{[4-(difluoromethoxy)phenyl]carbamoyl}-6-oxo-1-[2-(2,2,2-trifluoroethoxy)phenyl]-1,6-dihydropyridazine-3-carboxylate]
16 | 98 | CC(C)(O)c1ccc(NC(=O)c2cncn(-c3ccc(F)cc3OCC(F)(F)F)c2=O)cc1 [Example 98, 1-[4-fluoro-2-(2,2,2-trifluoroethoxy)phenyl]-N-[4-(2-hydroxypropan-2-yl)phenyl]-6-oxo-1,6-dihydropyrimidine-5-carboxamide]
17 | 96 | CC(C)(O)c1ccc(NC(=O)c2cn(CC3COC3)nc(-c3ccccc3OCC(F)F)c2=O)cc1 [Example 180, 6-[2-(2,2-difluoroethoxy)phenyl]-N-[4-(2-hydroxypropan-2-yl)phenyl]-2-[(oxetan-3-yl)methyl]-5-oxo-2,5-dihydropyridazine-4-carboxamide]
18 | 75 | COCCOc1cc(F)ccc1-n1cccc(C(=O)Nc2ccc(OCC(F)(F)F)nc2)c1=O [Example 27, 1-[4-fluoro-2-(2-methoxyethoxy)phenyl]-2-oxo-N-[6-(2,2,2-trifluoroethoxy)pyridin-3-yl]-1,2-dihydropyridine-3-carboxamide]
19 | 90 | O=C(Nc1ccc(F)cc1F)c1cn(C2COC2)nc(-c2ccccc2OCC(F)F)c1=O [Example 182, 6-[2-(2,2-difluoroethoxy)phenyl]-N-(2,4-difluorophenyl)-2-(oxetan-3-yl)-5-oxo-2,5-dihydropyridazine-4-carboxamide]
20 | 97 | CC(C)(O)Cn1cc(C(=O)Nc2ccc(C(O)(C(F)F)C(F)F)nc2)c(=O)c(-c2ccccc2OCC(F)F)n1 [Example 178, 6-[2-(2,2-difluoroethoxy)phenyl]-2-(2-hydroxy-2-methylpropyl)-5-oxo-N-[6-(1,1,3,3-tetrafluoro-2-hydroxypropan-2-yl)pyridin-3-yl]-2,5-dihydropyridazine-4-carboxamide]
21 | 99 | CC(C)(O)c1ccc(NC(=O)c2cccn(-c3ccc(F)cc3OCC(F)(F)C(F)(F)F)c2=O)cc1 [Example 58, 1-[4-fluoro-2-(2,2,3,3,3-pentafluoropropoxy)phenyl]-N-[4-(2-hydroxypropan-2-yl)phenyl]-2-oxo-1,2-dihydropyridine-3-carboxamide]
22 | 100 | O=C(Nc1ccc(OCC(F)(F)F)nc1)c1cccn(-c2ccccc2OCC(F)(F)F)c1=O [Example 15, 2-oxo-1-[2-(2,2,2-trifluoroethoxy)phenyl]-N-[6-(2,2,2-trifluoroethoxy)pyridin-3-yl]-1,2-dihydropyridine-3-carboxamide]
23 | 99 | O=C(Nc1ccc(C2(O)CCC2)cc1)c1cccn(-c2ccc(F)cc2OCC(F)(F)F)c1=O [Example 97, 1-[4-fluoro-2-(2,2,2-trifluoroethoxy)phenyl]-N-[4-(1-hydroxycyclobutyl)phenyl]-2-oxo-1,2-dihydropyridine-3-carboxamide]
24 | 100 | O=C(Nc1ccc(C(O)(C(F)F)C(F)F)cc1F)c1ccnn(-c2ccccc2OCC(F)F)c1=O [Example 157, 2-[2-(2,2-difluoroethoxy)phenyl]-N-[2-fluoro-4-(1,1,3,3-tetrafluoro-2-hydroxypropan-2-yl)phenyl]-3-oxo-2,3-dihydropyridazine-4-carboxamide]
25 | 100 | Cn1cc(C(=O)Nc2ccc(C(C)(C)C#N)cc2)c(=O)c(-c2ccccc2OCC(F)(F)F)n1 [Example 190, N-[4-(2-cyanopropan-2-yl)phenyl]-2-methyl-5-oxo-6-[2-(2,2,2-trifluoroethoxy)phenyl]-2,5-dihydropyridazine-4-carboxamide]
26 | 76 | CC(C)Cn1cc(NC(=O)c2cccn(-c3ccc(F)cc3OCC(F)(F)F)c2=O)cn1 [Example 33, 1-[4-fluoro-2-(2,2,2-trifluoroethoxy)phenyl]-N-[1-(2-methylpropyl)-1H-pyrazol-4-yl]-2-oxo-1,2-dihydropyridine-3-carboxamide]
27 | 86 | O=C(Nc1cnc(C(F)(F)F)nc1)c1cccn(-c2ccc(F)cc2OCC(F)(F)F)c1=O [Example 36, 1-[4-fluoro-2-(2,2,2-trifluoroethoxy)phenyl]-2-oxo-N-[2-(trifluoromethyl)pyrimidin-5-yl]-1,2-dihydropyridine-3-carboxamide]
